For 23 compounds, Ki results are on record in US7592345B2, “Piperazine and [1,4]diazepan derivatives as NK antagonists” (Hoffmann-La Roche Inc., priority 2007, dated 2009).

Each structure is given as a SMILES string.

This test concerns the target T1, recombinant human NK3 receptor (Homo sapiens, UniProt P29371).
T1 construct: expressed in transfected cells; host or cells: HEK293 cells (transient expression), membranes
T1 sequence (P29371 1-465): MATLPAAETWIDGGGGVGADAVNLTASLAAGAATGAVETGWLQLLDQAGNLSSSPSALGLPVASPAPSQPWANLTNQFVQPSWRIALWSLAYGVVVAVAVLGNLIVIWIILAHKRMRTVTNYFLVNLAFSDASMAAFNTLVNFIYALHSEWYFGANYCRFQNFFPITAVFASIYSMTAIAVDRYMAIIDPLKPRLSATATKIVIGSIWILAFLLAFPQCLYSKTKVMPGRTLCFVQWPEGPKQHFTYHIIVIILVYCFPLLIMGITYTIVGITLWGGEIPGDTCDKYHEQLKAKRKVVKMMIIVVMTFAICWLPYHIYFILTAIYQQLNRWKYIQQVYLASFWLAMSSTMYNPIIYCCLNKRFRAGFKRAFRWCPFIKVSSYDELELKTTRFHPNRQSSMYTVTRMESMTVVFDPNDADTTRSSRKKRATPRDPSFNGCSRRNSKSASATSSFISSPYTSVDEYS
Put plainly: [3H]SR142801 competition binding assay. The settings on record: [3H]SR142801, membranes from HEK293 cells transiently expressing recombinant human NK3 receptor; read-out: hNK3 Ki. The procedure: [^3H]SR142801 Competition Binding Assay
hNK3 receptor binding experiment were performed using [^3H]SR142801 (Catalog No. TRK1035, specific activity: 74.0 Ci/mmol, Amersham, GE Healthcare UK limited, Buckinghamshire, UK) and membrane isolated from HEK293 cells transiently expressing recombinant human NK3 receptor. After thawing, the membrane homogenates were centrifuged at 48,000×g for 10 min at 4° C., the pellets were resuspended in the 50 mM Tris-HCl, 4 mM MnCl2, 1 μM phosphoramidon, 0.1% BSA binding buffer at pH 7.4 to a final assay concentration of 5 μg protein/well. For inhibition experiments, membranes were incubated with [^3H]SR142801 at a concentration equal to KD value of radioligand and 10 concentrations of the inhibitory compound (0.0003-10 μM) (in a total reaction volume of 500 μl) for 75 min at room temperature (RT). At the end of the incubation, membranes were filtered onto unitfilter (96-well white microplate with bonded GF/C filter preincubated 1 h in 0.3% PEI+0.3% BSA, Packard BioScience, Meriden, Conn.) with a Filtermate 196 harvester (Packard BioScience) and washed 4 times with ice-cold 50 mM Tris-HCl, pH 7.4 buffer. Nonspecific binding was measured in the presence of 10 μM SB222200 for both radioligands. The radioactivity on the filter was counted (5 min) on a Packard Top-count microplate scintillation counter with quenching correction after addition of 45 μl of microscint 40 (Canberra Packard S. A., Zürich, Switzerland) and shaking for 1 h. Inhibition curves were fitted according to the Hill equation: y=100/(1+(x/IC50)^nH), where nH=slope factor using Excel-fit 4 software (Microsoft). IC50 values were derived from the inhibition curve and the affinity constant (Ki) values were calculated using the Cheng-Prussoff equation Ki=IC50/(1+[L]/KD) where [L] is the concentration of radioligand and KD is its dissociation constant at the receptor, derived from the saturation isotherm. All experiments were performed in duplicate and the mean±standard error (SEM) of the individual Ki values was calculated.
For orientation: Ki means the equilibrium dissociation constant of an inhibitor or competing ligand from its target. In the case of `CC(NC(=O)C(C)(CCN1CCN(S(C)(=O)=O)[C@@H](C)C1)c1ccc(Cl)c(Cl)c1)c1ccc(Cl)c(Cl)c1` (stereo partly drawn) [Example 80, 2-(3,4-Dichloro-phenyl)-N-[1-(3,4-dichloro-phenyl)-ethyl]-4-((S)-4-methanesulfonyl-3-methyl-piperazin-1-yl)-2-methyl-butyramide], the Ki stood at 16.2 nM.

Consider `COc1cc(CN(C)C(=O)C(C)(CCN2CCCN(S(C)(=O)=O)CC2)c2ccc(Cl)c(Cl)c2)ccc1OC(F)F` (centres unmarked) [Example 108, 2-(3,4-Dichloro-phenyl)-N-(4-difluoromethoxy-3-methoxy-benzyl)-4-(4-methanesulfonyl-[1,4]diazepan-1-yl)-2,N-dimethyl-butyramide], for which the inhibition constant (Ki) stood at 89.5 nM.

As to `CN(Cc1ccc(Cl)cc1)C(=O)C(C)(CCN1CCN(S(C)(=O)=O)CC1)c1ccc(Cl)c(Cl)c1` (centres unmarked) [Example 12, N-(4-Chloro-benzyl)-2-(3,4-dichloro-phenyl)-4-(4-methanesulfonyl-piperazin-1-yl)-2,N-dimethyl-butyramide], the Ki was 66.4 nM. As to `COc1ccc(CN(C)C(=O)C(C)(CCN2CCN(S(C)(=O)=O)[C@@H](C)C2)c2ccc(Cl)c(Cl)c2)cc1F` (stereo partly drawn) [Example 62, 2-(3,4-Dichloro-phenyl)-N-(3-fluoro-4-methoxy-benzyl)-4-((S)-4-methanesulfonyl-3-methyl-piperazin-1-yl)-2,N-dimethyl-butyramide], the Ki worked out at 216 nM. The figure for `CC(CCN1CCCN(S(C)(=O)=O)CC1)(C(=O)NCc1ccc(C(F)(F)F)c(F)c1)c1ccc(Cl)c(Cl)c1` (centres unmarked) [Example 95, 2-(3,4-Dichloro-phenyl)-N-(3-fluoro-4-trifluoromethyl-benzyl)-4-(4-methanesulfonyl-[1,4]diazepan-1-yl)-2-methyl-butyramide] is 64.3 nM; for `CN(Cc1ccc(C(F)(F)F)nc1)C(=O)C(C)(CCN1CCCN(S(C)(=O)=O)CC1)c1ccc(Cl)c(Cl)c1` (centres unmarked) [Example 125, 2-(3,4-Dichloro-phenyl)-4-(4-methanesulfonyl-[1,4]diazepan-1-yl)-2,N-dimethyl-N-(6-trifluoromethyl-pyridin-3-ylmethyl)-butyramide] it is 275 nM; for `CN(Cc1ccccc1Cl)C(=O)C(C)(CCN1CCCN(S(C)(=O)=O)CC1)c1ccc(Cl)c(Cl)c1` (centres unmarked) [Example 121, N-(2-Chloro-benzyl)-2-(3,4-dichloro-phenyl)-4-(4-methanesulfonyl-[1,4]diazepan-1-yl)-2,N-dimethyl-butyramide] it is 31.2 nM. For the compound `COc1ccc(CN(C)C(=O)C(C)(CCN2CCN(S(C)(=O)=O)CC2)c2ccc(Cl)c(Cl)c2)cc1F` (centres unmarked) [Example 25, 2-(3,4-Dichloro-phenyl)-N-(3-fluoro-4-methoxy-benzyl)-4-(4-methanesulfonyl-piperazin-1-yl)-2,N-dimethyl-butyramide], the inhibitory constant (Ki) is 134 nM. For `CC(NC(=O)C(C)(CCN1CCCN(S(C)(=O)=O)CC1)c1ccc(Cl)c(Cl)c1)c1ccc(Cl)cc1` (centres unmarked) [Example 119, N-[1-(4-Chloro-phenyl)-ethyl]-2-(3,4-dichloro-phenyl)-4-(4-methanesulfonyl-[1,4]diazepan-1-yl)-2-methyl-butyramide] the value was 121 nM; for `CN(Cc1ccc(-c2ccncc2)cc1)C(=O)C(C)(CCN1CCCN(S(C)(=O)=O)CC1)c1ccc(Cl)c(Cl)c1` (centres unmarked) [Example 123, 2-(3,4-Dichloro-phenyl)-4-(4-methanesulfonyl-[1,4]diazepan-1-yl)-2,N-dimethyl-N-(4-pyridin-4-yl-benzyl)-butyramide], 93.4 nM. The figure for `CN(Cc1cccc(Cl)c1)C(=O)C(C)(CCN1CCN(S(C)(=O)=O)CC1)c1ccc(Cl)c(Cl)c1` (centres unmarked) [Example 10, N-(3-Chloro-benzyl)-2-(3,4-dichloro-phenyl)-4-(4-methanesulfonyl-piperazin-1-yl)-2,N-dimethyl-butyramide] is 145 nM. For `C[C@H]1CN(CC[C@@](C)(C(=O)NCc2ccc(Cl)c(Cl)c2)c2ccc(Cl)c(Cl)c2)CCN1S(C)(=O)=O` (single isomer, unassigned) [Example 94, (R or S)—N-(3,4-Dichloro-benzyl)-2-(3,4-dichloro-phenyl)-4-((R)-4-methanesulfonyl-3-methyl-piperazin-1-yl)-2-methyl-butyramide] the value was 112 nM.

Turning to `CC(CCN1CCN(S(C)(=O)=O)CC1)(C(=O)N[C@H](CO)c1ccc(F)cc1)c1ccc(Cl)c(Cl)c1` (stereo partly drawn) [Example 133, 2-(3,4-Dichloro-phenyl)-N-[(S)-1-(4-fluoro-phenyl)-2-hydroxy-ethyl]-4-(4-methanesulfonyl-piperazin-1-yl)-2-methyl-butyramide], the Ki was determined as 397 nM. The figure for `C[C@H]1CN(CCC(C)(C(=O)N(C)Cc2cccc(Cl)c2)c2ccc(Cl)c(Cl)c2)CCN1S(C)(=O)=O` (stereo partly drawn) [Example 88, N-(3-Chloro-benzyl)-2-(3,4-dichloro-phenyl)-4-((S)-4-methanesulfonyl-3-methyl-piperazin-1-yl)-2,N-dimethyl-butyramide] is 107 nM; for `C[C@@H]1CN(CCC(C)(C(=O)NCc2ccc(Cl)c(C(F)(F)F)c2)c2ccc(Cl)c(Cl)c2)CCN1S(C)(=O)=O` (stereo partly drawn) [Example 54, N-(4-Chloro-3-trifluoromethyl-benzyl)-2-(3,4-dichloro-phenyl)-4-((R)-4-methanesulfonyl-3-methyl-piperazin-1-yl)-2-methyl-butyramide] it is 17.5 nM. In the case of `CN(Cc1ccc(-c2ccncc2)cc1)C(=O)C(C)(CCN1CCN(S(C)(=O)=O)CC1)c1ccc(Cl)c(Cl)c1` (centres unmarked) [Example 23, 2-(3,4-Dichloro-phenyl)-4-(4-methanesulfonyl-piperazin-1-yl)-2,N-dimethyl-N-(4-pyridin-4-yl-benzyl)-butyramide], the Ki was found to be 201 nM. For `CC(CCN1CCCN(S(C)(=O)=O)CC1)(C(=O)NCc1cc(F)ccc1C(F)(F)F)c1ccc(Cl)c(Cl)c1` (centres unmarked) [Example 116, 2-(3,4-Dichloro-phenyl)-N-(5-fluoro-2-trifluoromethyl-benzyl)-4-(4-methanesulfonyl-[1,4]diazepan-1-yl)-2-methyl-butyramide] the value was 575 nM; for `C[C@@H]1CN(CCC(C)(C(=O)NCc2ccc(Cl)c(F)c2)c2ccc(Cl)c(Cl)c2)CCN1S(C)(=O)=O` (stereo partly drawn) [Example 52, N-(4-Chloro-3-fluoro-benzyl)-2-(3,4-dichloro-phenyl)-4-((R)-4-methanesulfonyl-3-methyl-piperazin-1-yl)-2-methyl-butyramide], 46.4 nM. The figure for `CC(NC(=O)C(C)(CCN1CCN(S(C)(=O)=O)[C@H](C)C1)c1ccc(Cl)c(Cl)c1)c1ccc(Cl)cc1` (stereo partly drawn) [Example 47, N-[1-(4-Chloro-phenyl)-ethyl]-2-(3,4-dichloro-phenyl)-4-((R)-4-methanesulfonyl-3-methyl-piperazin-1-yl)-2-methyl-butyramide] is 15.9 nM; for `CC(CCN1CCN(S(C)(=O)=O)CC1)(C(=O)NCc1ccc(OC(F)F)cc1)c1ccc(Cl)c(Cl)c1` (centres unmarked) [Example 13, 2-(3,4-Dichloro-phenyl)-N-(4-difluoromethoxy-benzyl)-4-(4-methanesulfonyl-piperazin-1-yl)-2-methyl-butyramide] it is 326 nM; for `COc1cc(CN(C)C(=O)C(C)(CCN2CCN(S(C)(=O)=O)CC2)c2ccc(Cl)c(Cl)c2)ccc1OC(F)F` (centres unmarked) [Example 26, 2-(3,4-Dichloro-phenyl)-N-(4-difluoromethoxy-3-methoxy-benzyl)-4-(4-methanesulfonyl-piperazin-1-yl)-2,N-dimethyl-butyramide] it is 275 nM. The figure for `CC(CCN1CCCN(S(C)(=O)=O)CC1)(C(=O)NCc1cc(C(F)(F)F)ccc1F)c1ccc(Cl)c(Cl)c1` (centres unmarked) [Example 118, 2-(3,4-Dichloro-phenyl)-N-(2-fluoro-5-trifluoromethyl-benzyl)-4-(4-methanesulfonyl-[1,4]diazepan-1-yl)-2-methyl-butyramide] is 136 nM. Regarding `C[C@H]1CN(CCC(C)(C(=O)NCc2cc(C(F)(F)F)ccc2F)c2ccc(Cl)c(Cl)c2)CCN1S(C)(=O)=O` (stereo partly drawn) [Example 76, 2-(3,4-Dichloro-phenyl)-N-(2-fluoro-5-trifluoromethyl-benzyl)-4-((S)-4-methanesulfonyl-3-methyl-piperazin-1-yl)-2-methyl-butyramide], the Ki stood at 311 nM.
